Data taken from US9187460B2, “Estrogen receptor modulators and uses thereof” (SERAGON PHARMACEUTICALS, INC., priority 2011, dated 2015).

Assays:
[1] = target: T1, ER-α (Homo sapiens, UniProt P03372); assay: Breast Cancer Cell ER-α in Cell Western Assay (SP1); format: cell-based; conditions: MCF7, read-out: ER In-Cell Western Assay (SP1); Max Response
T1 construct: endogenous in cells; host or cells: MCF-7
Protocol: Breast Cancer Cell ER-α in Cell Western Assay (SP1)
MCF-7 cells were adjusted to a concentration of 200,000 cells per mL in RPMI containing 10% charcoal-stripped FBS and 20 mM HEPES. 16 microliters of the cell suspension (3200 cells) was added to each well of a poly-D-lysine 384 well plate, and the cells were incubated overnight to allow the cells to adhere. The following day an eleven point, serial semilog dilution of each compound was added to the cells in 16 μL at a final concentration ranging from 0.3-0.000003 μM. At 4 or 24 hr post compound addition, the cells were fixed (10% formalin in PBS) for 20 minutes. Cells were permeablized in PBS 0.1% Triton and blocked with LICOR blocking buffer (50 μl/well, 90′). The wells were then incubated overnight at 4° C. with SP1 rabbit monoclonal Ab (Thermo Scientific) diluted 1:1000 in LICOR blocking buffer/0.1% Tween-20. Wells which were treated with blocking buffer with Tween but no antibody were used as a background control. Wells were washed with 0.1% Tween-20/PBS and then incubated in goat anti-rabbit IRDye™ 800CW (LICOR Inc.; 1:1000) and DRAQ5 DNA dye (1:2000 for 2 mM stock) diluted in LICOR blocking buffer containing 0.1% Tween-20 and 0.01% SDS for 60 minutes. Cells were washed (50 μl/well, 5′ each) in 0.1% Tween-20/PBS. Plates were scanned on a LICOR Odyssey infrared imaging system. Integrated intensities in the 800 nm channel and 700 nm channel were measured to determine levels of ER and DNA respectively. Percent ER levels were determined as follows: (Integrated intensity 800 nm sample/integrated intensity 700 nm sample)/(Integrated intensity 800 nm untreated cells/integrated intensity 700 nm untreated cells)×100=% ER levels.

[2] = system: MCF-7 cells; assay: Breast Cancer Cell Viability Assay (MCF7 Viability Assay); format: cell-based; conditions: for IC50: Homo sapiens, MCF7, 120 h, read-out: MCF7 Viability Assay IC50; for MCF7 Viability Assay Max Response: MCF-7 cells, 5 days' compound exposure, CellTiter-Glo

T1 sequence (P03372 whole entry): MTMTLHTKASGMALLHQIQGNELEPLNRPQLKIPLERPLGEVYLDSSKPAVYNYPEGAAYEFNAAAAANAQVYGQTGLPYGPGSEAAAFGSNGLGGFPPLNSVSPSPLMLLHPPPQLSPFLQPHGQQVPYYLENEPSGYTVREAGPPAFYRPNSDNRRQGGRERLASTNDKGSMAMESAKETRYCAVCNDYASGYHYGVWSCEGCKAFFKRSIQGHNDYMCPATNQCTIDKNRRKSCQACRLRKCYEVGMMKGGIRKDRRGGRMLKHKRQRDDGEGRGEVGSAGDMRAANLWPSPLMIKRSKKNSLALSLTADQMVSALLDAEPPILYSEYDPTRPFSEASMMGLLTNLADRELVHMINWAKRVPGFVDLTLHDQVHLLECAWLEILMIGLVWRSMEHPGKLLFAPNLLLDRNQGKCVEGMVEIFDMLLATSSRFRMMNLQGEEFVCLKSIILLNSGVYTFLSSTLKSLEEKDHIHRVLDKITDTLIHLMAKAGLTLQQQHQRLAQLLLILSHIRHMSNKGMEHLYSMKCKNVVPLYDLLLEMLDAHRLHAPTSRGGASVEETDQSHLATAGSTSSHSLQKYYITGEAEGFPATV

Row | SMILES | Emax [1] [%] | IC50 [2] [nM] | MCF7 Viability Assay Max Response [2]
1 | CC1=C(c2ccc(S(C)(=O)=O)cc2C)C(c2ccc(OC[C@H](C)N3CC[C@@H](C)C3)cc2)Oc2ccc(O)cc21 (stereo partly drawn) [Example 18, 4-Methyl-3-(2-methyl-4-(methylsulfonyl)phenyl)-2-(4-((S)-2-((R)-3-methylpyrrolidin-1-yl)propoxy)phenyl)-2H-chromen-6-ol] | 60 to 85 | > 1 | ++ (++ = a single % value ≧50%)
2 | CC1=C(c2cccc(O)c2)C(c2ccc(OCCN3CCSCC3)cc2)Oc2ccc(O)cc21 (stereo not drawn) [Example 19, 3-(3-Hydroxyphenyl)-4-methyl-2-(4-(2-thiomorpholinoethoxy)phenyl)-2H-chromen-6-ol] | 60 to 85 | < 1 | + (+ = a single % value <50%)
3 | CC1=C(c2cccc(O)c2)C(c2ccc(OCCN3CCO[C@@H](C)C3)cc2)Oc2ccc(O)cc21 (stereo partly drawn) [Example 20, 3-(3-Hydroxyphenyl)-4-methyl-2-(4-(2-((S)-2-methylmorpholino)ethoxy)phenyl)-2H-chromen-6-ol] | < 60 | < 1 | + (+ = a single % value <50%)
4 | CC1=C(c2cccc(O)c2)C(c2ccc(OCCN3CCOCC3)cc2)Oc2ccc(O)cc21 (stereo not drawn) [Example 21, 3-(3-Hydroxyphenyl)-4-methyl-2-(4-(2-morpholinoethoxy)phenyl)-2H-chromen-6-ol] | 60 to 85 | < 1 | + (+ = a single % value <50%)
5 | CC1=C(c2cccc(O)c2)C(c2ccc(OCCN3CCO[C@H](C)C3)cc2)Oc2ccc(O)cc21 (stereo partly drawn) [Example 22, 3-(3-Hydroxyphenyl)-4-methyl-2-(4-(2-((R)-2-methylmorpholino)ethoxy)phenyl)-2H-chromen-6-ol] | < 60 | > 1 | + (+ = a single % value <50%)
6 | CC1=C(c2cccc(O)c2)C(c2ccc(OCCN3CCOC[C@@H]3C)cc2)Oc2ccc(O)cc21 (stereo partly drawn) [Example 23, 3-(3-Hydroxyphenyl)-4-methyl-2-(4-(2-((S)-3-methylmorpholino)ethoxy)phenyl)-2H-chromen-6-ol] | < 60 | > 1 | + (+ = a single % value <50%)
7 | CC1=C(c2cccc(O)c2)C(c2ccc(OCCN3CCOC[C@H]3C)cc2)Oc2ccc(O)cc21 (stereo partly drawn) [Example 24, 3-(3-Hydroxyphenyl)-4-methyl-2-(4-(2-((R)-3-methylmorpholino)ethoxy)phenyl)-2H-chromen-6-ol] | < 60 | < 1 | + (+ = a single % value <50%)
8 | CO[C@@H]1CCN([C@@H](C)COc2ccc(C3Oc4ccc(O)cc4C(C)=C3c3cccc(O)c3)cc2)C1 (stereo partly drawn) [Example 25, 3-(3-Hydroxyphenyl)-2-(4-((S)-2-((R)-3-methoxypyrrolidin-1-yl)propoxy)phenyl)-4-methyl-2H-chromen-6-ol] | 60 to 85 | < 1 | ++ (++ = a single % value ≧50%)
9 | CC1=C(c2cccc(O)c2)C(c2ccc(OC[C@H](C)N3CC[C@@H](O)C3)cc2)Oc2ccc(O)cc21 (stereo partly drawn) [Example 26, (3R)-1-((2S)-1-(4-(6-Hydroxy-3-(3-hydroxyphenyl)-4-methyl-2H-chromen-2-yl)phenoxy)propan-2-yl)pyrrolidin-3-ol] | < 60 | < 1 | + (+ = a single % value <50%)
10 | CC1=C(c2cccc(O)c2)C(c2ccc(OC[C@H](C)N3CCOC[C@H]3C)cc2)Oc2ccc(O)cc21 (stereo partly drawn) [Example 27, 3-(3-Hydroxyphenyl)-4-methyl-2-(4-((S)-2-((R)-3-methylmorpholino)propoxy)phenyl)-2H-chromen-6-ol] | < 60 | < 1 | ++ (++ = a single % value ≧50%)
11 | CC1=C(c2cccc(O)c2)C(c2ccc(OC[C@H](C)N3CCN(C)C[C@H]3C)cc2)Oc2ccc(O)cc21 (stereo partly drawn) [Example 28, 2-(4-((S)-2-((R)-2,4-Dimethylpiperazin-1-yl)propoxy)phenyl)-3-(3-hydroxyphenyl)-4-methyl-2H-chromen-6-ol] | < 60 | < 1 | + (+ = a single % value <50%)
12 | CC1=C(c2cccc(O)c2)C(c2ccc(OC[C@H](C)N3CCOCC3)cc2)Oc2ccc(O)cc21 (stereo partly drawn) [Example 29, 3-(3-Hydroxyphenyl)-4-methyl-2-(4-((S)-2-morpholinopropoxy)phenyl)-2H-chromen-6-ol] | 60 to 85 | < 1 | + (+ = a single % value <50%)
13 | COc1ccc2c(c1)C(C)=C(c1ccc(O)cc1)C(c1ccc(OC[C@H](C)N3CC[C@@H](C)C3)cc1)O2 (stereo partly drawn) [Example 30, 4-(6-Methoxy-4-methyl-2-(4-((S)-2-((R)-3-methylpyrrolidin-1-yl)propoxy)phenyl)-2H-chromen-3-yl)phenol] | 60 to 85 | > 1 | ++ (++ = a single % value ≧50%)
14 | COc1cccc(C2=C(C)c3cc(O)ccc3OC2c2ccc(OC[C@H](C)N3CC[C@@H](C)C3)cc2)c1 (stereo partly drawn) [Example 31, 3-(3-Methoxyphenyl)-4-methyl-2-(4-((S)-2-((R)-3-methylpyrrolidin-1-yl)propoxy)phenyl)-2H-chromen-6-ol] | 60 to 85 | > 1 | ++ (++ = a single % value ≧50%)
